Reference: publication PMC5003625 (Journal of medicinal chemistry, 2016)

Key:
[1] = target: EZH1 pentameric complex (EZH1:EED:SUZ12:RBBP4:AEBP2) (Homo sapiens, UniProt Q92800); test: Methyltransferase activity assay; format: biochemical; details: for fold loss of potency for EZH1: relative to the parent compound 5
[2] = target: EZH2 trimeric complex (EZH2:EED:SUZ12) (Homo sapiens, UniProt Q15910); test: Methyltransferase activity assay; format: biochemical; details: for fold loss of potency for EZH2: relative to the parent compound of the sentence (5, 24 or 53)
EZH2 trimeric complex (EZH2:EED:SUZ12), sequence (Q15910 whole entry): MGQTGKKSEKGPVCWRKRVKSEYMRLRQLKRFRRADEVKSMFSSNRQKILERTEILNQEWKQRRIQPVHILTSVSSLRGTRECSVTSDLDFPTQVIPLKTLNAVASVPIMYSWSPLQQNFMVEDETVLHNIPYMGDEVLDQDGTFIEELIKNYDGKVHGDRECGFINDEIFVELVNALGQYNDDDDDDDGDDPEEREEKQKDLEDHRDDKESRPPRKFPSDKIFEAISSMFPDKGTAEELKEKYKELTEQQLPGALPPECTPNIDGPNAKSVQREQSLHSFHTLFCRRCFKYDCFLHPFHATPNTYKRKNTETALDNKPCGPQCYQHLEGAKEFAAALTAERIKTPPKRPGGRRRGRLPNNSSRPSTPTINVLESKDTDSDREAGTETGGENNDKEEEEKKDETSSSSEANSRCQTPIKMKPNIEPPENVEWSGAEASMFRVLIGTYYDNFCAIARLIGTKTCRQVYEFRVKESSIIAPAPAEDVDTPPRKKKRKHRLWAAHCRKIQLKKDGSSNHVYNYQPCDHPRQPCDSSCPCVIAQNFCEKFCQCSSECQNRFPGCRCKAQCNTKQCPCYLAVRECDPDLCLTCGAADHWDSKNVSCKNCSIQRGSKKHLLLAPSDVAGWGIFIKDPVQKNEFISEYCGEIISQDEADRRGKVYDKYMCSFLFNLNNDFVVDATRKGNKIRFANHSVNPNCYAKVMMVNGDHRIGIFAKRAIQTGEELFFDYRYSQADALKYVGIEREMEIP
EZH2 trimeric complex (EZH2:EED:SUZ12), sequence (O75530 whole entry partner): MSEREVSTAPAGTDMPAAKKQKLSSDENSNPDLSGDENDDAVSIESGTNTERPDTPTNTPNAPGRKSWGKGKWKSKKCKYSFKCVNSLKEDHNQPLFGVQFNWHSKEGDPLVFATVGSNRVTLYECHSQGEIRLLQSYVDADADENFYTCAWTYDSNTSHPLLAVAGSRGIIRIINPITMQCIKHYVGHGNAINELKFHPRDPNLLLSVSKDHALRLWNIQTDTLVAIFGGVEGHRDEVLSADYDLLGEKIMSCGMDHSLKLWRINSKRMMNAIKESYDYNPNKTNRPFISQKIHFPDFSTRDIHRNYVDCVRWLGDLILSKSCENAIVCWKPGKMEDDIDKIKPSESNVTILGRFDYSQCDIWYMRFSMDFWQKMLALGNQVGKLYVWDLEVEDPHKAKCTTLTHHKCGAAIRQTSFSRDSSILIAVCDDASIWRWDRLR
EZH2 trimeric complex (EZH2:EED:SUZ12), sequence (Q15022 whole entry partner): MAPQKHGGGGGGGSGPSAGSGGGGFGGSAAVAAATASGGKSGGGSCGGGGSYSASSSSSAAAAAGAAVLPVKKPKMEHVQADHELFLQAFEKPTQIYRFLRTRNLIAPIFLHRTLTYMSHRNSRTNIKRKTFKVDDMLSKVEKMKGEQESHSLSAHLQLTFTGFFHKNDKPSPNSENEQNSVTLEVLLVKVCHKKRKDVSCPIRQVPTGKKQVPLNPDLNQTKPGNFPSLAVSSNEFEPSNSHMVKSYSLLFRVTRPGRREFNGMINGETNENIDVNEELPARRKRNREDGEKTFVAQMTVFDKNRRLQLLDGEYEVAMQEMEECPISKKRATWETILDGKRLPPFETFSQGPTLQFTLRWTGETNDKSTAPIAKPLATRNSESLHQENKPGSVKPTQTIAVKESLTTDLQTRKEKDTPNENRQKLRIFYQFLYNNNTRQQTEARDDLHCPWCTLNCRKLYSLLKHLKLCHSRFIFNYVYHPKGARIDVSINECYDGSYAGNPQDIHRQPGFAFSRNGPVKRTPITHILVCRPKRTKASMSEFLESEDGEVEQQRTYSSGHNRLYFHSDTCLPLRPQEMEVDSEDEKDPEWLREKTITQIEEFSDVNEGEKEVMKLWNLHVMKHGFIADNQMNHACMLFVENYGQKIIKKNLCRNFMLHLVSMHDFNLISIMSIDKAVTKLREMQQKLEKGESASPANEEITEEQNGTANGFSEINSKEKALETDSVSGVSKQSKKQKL

EZH1 pentameric complex (EZH1:EED:SUZ12:RBBP4:AEBP2), sequence (Q92800 whole entry): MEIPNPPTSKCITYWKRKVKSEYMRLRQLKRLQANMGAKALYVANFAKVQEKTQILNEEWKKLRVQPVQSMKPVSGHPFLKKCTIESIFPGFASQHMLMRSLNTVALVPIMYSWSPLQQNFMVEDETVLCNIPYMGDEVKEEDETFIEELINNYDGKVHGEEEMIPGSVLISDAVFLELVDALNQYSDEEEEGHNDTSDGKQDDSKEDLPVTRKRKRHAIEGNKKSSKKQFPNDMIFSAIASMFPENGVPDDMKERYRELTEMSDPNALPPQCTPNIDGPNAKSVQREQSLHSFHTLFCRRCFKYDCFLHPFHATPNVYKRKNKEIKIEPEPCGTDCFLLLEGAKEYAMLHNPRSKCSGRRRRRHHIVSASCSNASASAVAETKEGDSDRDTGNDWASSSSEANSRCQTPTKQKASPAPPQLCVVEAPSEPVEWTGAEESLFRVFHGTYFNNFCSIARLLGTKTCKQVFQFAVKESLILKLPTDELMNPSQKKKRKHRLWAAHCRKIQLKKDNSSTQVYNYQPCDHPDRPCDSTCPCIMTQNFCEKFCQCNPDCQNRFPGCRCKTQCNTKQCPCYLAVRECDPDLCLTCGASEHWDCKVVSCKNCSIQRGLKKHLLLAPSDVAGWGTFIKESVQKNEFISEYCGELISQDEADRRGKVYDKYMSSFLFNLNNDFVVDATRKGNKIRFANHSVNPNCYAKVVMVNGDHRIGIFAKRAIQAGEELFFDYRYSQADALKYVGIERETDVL
EZH1 pentameric complex (EZH1:EED:SUZ12:RBBP4:AEBP2), sequence (O75530 whole entry partner): as the sequence (O75530 whole entry partner) above
EZH1 pentameric complex (EZH1:EED:SUZ12:RBBP4:AEBP2), sequence (Q15022 whole entry partner): as the sequence (Q15022 whole entry partner) above
EZH1 pentameric complex (EZH1:EED:SUZ12:RBBP4:AEBP2), sequence (Q09028 whole entry partner): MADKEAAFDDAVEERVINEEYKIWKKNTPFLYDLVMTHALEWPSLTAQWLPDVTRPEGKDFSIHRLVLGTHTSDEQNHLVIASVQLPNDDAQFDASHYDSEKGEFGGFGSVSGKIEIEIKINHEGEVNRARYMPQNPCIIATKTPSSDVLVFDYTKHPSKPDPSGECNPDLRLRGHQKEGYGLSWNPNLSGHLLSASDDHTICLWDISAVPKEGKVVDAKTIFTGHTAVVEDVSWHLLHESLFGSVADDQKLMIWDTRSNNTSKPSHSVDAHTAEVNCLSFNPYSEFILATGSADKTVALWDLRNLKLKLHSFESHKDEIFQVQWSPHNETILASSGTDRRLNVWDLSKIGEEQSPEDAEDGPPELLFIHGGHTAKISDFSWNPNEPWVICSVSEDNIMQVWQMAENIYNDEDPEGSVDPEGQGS
EZH1 pentameric complex (EZH1:EED:SUZ12:RBBP4:AEBP2), sequence (Q6ZN18 whole entry partner): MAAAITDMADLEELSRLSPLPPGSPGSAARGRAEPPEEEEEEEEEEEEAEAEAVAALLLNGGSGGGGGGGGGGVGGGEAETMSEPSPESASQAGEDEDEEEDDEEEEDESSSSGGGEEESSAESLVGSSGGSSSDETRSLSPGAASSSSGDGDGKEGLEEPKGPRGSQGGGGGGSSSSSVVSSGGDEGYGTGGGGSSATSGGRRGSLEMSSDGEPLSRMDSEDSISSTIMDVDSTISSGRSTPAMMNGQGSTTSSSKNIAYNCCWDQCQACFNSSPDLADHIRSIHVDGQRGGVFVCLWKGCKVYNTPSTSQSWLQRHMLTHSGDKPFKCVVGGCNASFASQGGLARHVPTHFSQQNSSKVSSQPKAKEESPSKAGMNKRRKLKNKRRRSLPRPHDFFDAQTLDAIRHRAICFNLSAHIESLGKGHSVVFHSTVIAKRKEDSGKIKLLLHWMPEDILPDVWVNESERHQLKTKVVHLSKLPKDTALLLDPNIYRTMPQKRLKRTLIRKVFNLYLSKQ

SMILES | inhibitory activity against EZH1, in words [1] | inhibitory activity against EZH2, in words [2] | further results
CCc1cc(C)[nH]c(=O)c1CNC(=O)c1cc(-c2ccc(N3CCN(C(C)C)CC3)nc2)cc2c1cnn2C(C)C [Compound 25, N-((4-Ethyl-6-methyl-2-oxo-1,2-dihydropyridin-3-yl)methyl)-1-isopropyl-6-(6-(4-isopropylpiperazin-1-yl)pyridin-3-yl)-1H-indazole-4-carboxamide] | – | – | fold increase in EZH1 potency ([1]; relative to compound 24): more than 3 fold
CCc1cc(C)c(CNC(=O)c2cc(-c3ccc(N4CCN(C(C)C)CC4)nc3)cc3c2cnn3C(C)C)c(=O)[nH]1 [Compound 30, N-((6-Ethyl-4-methyl-2-oxo-1,2-dihydropyridin-3-yl)methyl)-1-isopropyl-6-(6-(4-isopropylpiperazin-1-yl)pyridin-3-yl)-1H-indazole-4-carboxamide] | did not exhibit appreciable inhibitory activity | – | –
CCC(C)c1cc(C)c(CNC(=O)c2cc(-c3ccc(N4CCN(C(C)C)CC4)nc3)cc3c2cnn3C(C)C)c(=O)[nH]1 (stereo not shown) [Compound 31, N-((6-(sec-Butyl)-4-methyl-2-oxo-1,2-dihydropyridin-3-yl)-methyl)-1-isopropyl-6-(6-(4-isopropylpiperazin-1-yl)pyridin-3-yl)-1H-indazole-4-carboxamide] | did not exhibit appreciable inhibitory activity | – | –
Cc1cc(C(C)(C)C)[nH]c(=O)c1CNC(=O)c1cc(-c2ccc(N3CCN(C(C)C)CC3)nc2)cc2c1cnn2C(C)C [Compound 32, N-((6-(tert-Butyl)-4-methyl-2-oxo-1,2-dihydropyridin-3-yl)-methyl)-1-isopropyl-6-(6-(4-isopropylpiperazin-1-yl)pyridin-3-yl)-1H-indazole-4-carboxamide] | complete loss of potency | complete loss of potency | –
Cc1cc(-c2ccccc2)[nH]c(=O)c1CNC(=O)c1cc(-c2ccc(N3CCN(C(C)C)CC3)nc2)cc2c1cnn2C(C)C [Compound 33, 1-Isopropyl-6-(6-(4-isopropylpiperazin-1-yl)pyridin-3-yl)-N-((4-methyl-2-oxo-6-phenyl-1,2-dihydropyridin-3-yl)methyl)-1H-inda-zole-4-carboxamide] | complete loss of potency | complete loss of potency | –
CC(C)N1CCN(c2ccc(-c3cc(C(=O)NCc4ccc[nH]c4=O)c4cnn(C(C)C)c4c3)cn2)CC1 [Compound 34, 1-Isopropyl-6-(6-(4-isopropylpiperazin-1-yl)pyridin-3-yl)-N-((2-oxo-1,2-dihydropyridin-3-yl)methyl)-1H-indazole-4-carboxamide] | – | – | fold loss of potency for EZH2 [2]: > 500 fold
Cc1cc(O)c(CNC(=O)c2cc(-c3ccc(N4CCN(C(C)C)CC4)nc3)cc3c2cnn3C(C)C)c(=O)[nH]1 [Compound 39, N-((4-Hydroxy-6-methyl-2-oxo-1,2-dihydropyridin-3-yl)methyl)-1-isopropyl-6-(6-(4-isopropylpiperazin-1-yl)pyridin-3-yl)-1H-inda-zole-4-carboxamide] | total loss of potency | total loss of potency | –
Cc1ncc(CNC(=O)c2cc(-c3ccc(N4CCN(C(C)C)CC4)nc3)cc3c2cnn3C(C)C)c(=O)[nH]1 [Compound 40, 1-Isopropyl-6-(6-(4-isopropylpiperazin-1-yl)pyridin-3-yl)-N-((2-methyl-6-oxo-1,6-dihydropyrimidin-5-yl)methyl)-1H-indazole-4-carboxamide] | completely abrogated inhibitory activity | completely abrogated inhibitory activity | –
CC(C)N1CCN(c2ccc(-c3cc(C(=O)NCc4cnc[nH]c4=O)c4cnn(C(C)C)c4c3)cn2)CC1 [Compound 41, 1-Isopropyl-6-(6-(4-isopropylpiperazin-1-yl)pyridin-3-yl)-N-((6-oxo-1,6-dihydropyrimidin-5-yl)methyl)-1H-indazole-4-carboxamide] | completely abrogated inhibitory activity | completely abrogated inhibitory activity | –
Cc1[nH]c(=O)[nH]c(=O)c1CNC(=O)c1cc(-c2ccc(N3CCN(C(C)C)CC3)nc2)cc2c1cnn2C(C)C [Compound 42, 1-Isopropyl-6-(6-(4-isopropylpiperazin-1-yl)pyridin-3-yl)-N-((6-methyl-2,4-dioxo-1,2,3,4-tetrahydropyrimidin-5-yl)methyl)-1H-in-dazole-4-carboxamide] | completely abrogated inhibitory activity | completely abrogated inhibitory activity | –
CC(C)N1CCN(c2ccc(-c3cc(C(=O)NC4CC(C)(C)NC(C)(C)C4)c4cnn(C(C)C)c4c3)cn2)CC1 [Compound 43, 1-Isopropyl-6-(6-(4-isopropylpiperazin-1-yl)pyridin-3-yl)-N-(2,2,6,6-tetramethylpiperidin-4-yl)-1H-indazole-4-carboxamide] | complete loss of potency | complete loss of potency | –
CCCc1cc(C)[nH]c(=O)c1CNC(=O)c1cc(-c2ccc(N3CCN(C(C)C)CC3)nc2)cc2nn(C(C)C)cc12 [Compound 44, 2-Isopropyl-6-(6-(4-isopropylpiperazin-1-yl)pyridin-3-yl)-N-((6-methyl-2-oxo-4-propyl-1,2-dihydropyridin-3-yl)methyl)-2H-inda-zole-4-carboxamide] | – | – | fold loss of potency for EZH1 [1]: more than 30 fold; fold loss of potency for EZH2 [2]: more than 30 fold
CCCc1cc(C)[nH]c(=O)c1CNC(=O)c1nn(C(C)C)c2cc(-c3ccc(N4CCN(C(C)C)CC4)nc3)ccc12 [Compound 45, 1-Isopropyl-6-(6-(4-isopropylpiperazin-1-yl)pyridin-3-yl)-N-((6-methyl-2-oxo-4-propyl-1,2-dihydropyridin-3-yl)methyl)-1H-inda-zole-3-carboxamide] | obliterated the inhibitory activity | obliterated the inhibitory activity | –
CCCc1cc(C)[nH]c(=O)c1CNC(=O)c1nn(C(C)C)c2ccc(-c3ccc(N4CCN(C(C)C)CC4)nc3)cc12 [Compound 46, 1-Isopropyl-5-(6-(4-isopropylpiperazin-1-yl)pyridin-3-yl)-N-((6-methyl-2-oxo-4-propyl-1,2-dihydropyridin-3-yl)methyl)-1H-inda-zole-3-carboxamide] | complete loss of potency | complete loss of potency | –
CCCc1cc(C)[nH]c(=O)c1CNC(=O)c1cc(-c2ccc(N3CCN(C(C)C)CC3)nc2)c2cnn(C(C)C)c2c1 [Compound 47, 1-Isopropyl-4-(6-(4-isopropylpiperazin-1-yl)pyridin-3-yl)-N-((6-methyl-2-oxo-4-propyl-1,2-dihydropyridin-3-yl)methyl)-1H-inda-zole-6-carboxamide] | abolished all EZH1 inhibition | – | –
CCCc1cc(C)[nH]c(=O)c1CNC(=O)c1cc(-c2ccc(N3CCN(C(C)C)CC3)nc2)cc2c1cnn2CC1CCCC1 [Compound 58, 1-(Cyclopentylmethyl)-6-(6-(4-isopropylpiperazin-1-yl)pyridin-3-yl)-N-((6-methyl-2-oxo-4-propyl-1,2-dihydropyridin-3-yl)methyl)-1H-indazole-4-carboxamide] | – | – | fold loss of potency for EZH2 [2]: > 15 fold
CCCc1cc(C)[nH]c(=O)c1CNC(=O)c1cc(-c2ccc(N3CCN(C(C)C)CC3)nc2)cc2c1cnn2CC1CCCCC1 [Compound 59, 1-(Cyclohexylmethyl)-6-(6-(4-isopropylpiperazin-1-yl)pyridin-3-yl)-N-((6-methyl-2-oxo-4-propyl-1,2-dihydropyridin-3-yl)methyl)-1H-indazole-4-carboxamide] | – | significant drop in potency | –
CCCc1cc(C)[nH]c(=O)c1CNC(=O)c1cc(-c2ccc(N3CCN(C(C)C)CC3)nc2)cc2c1cnn2CCC1CCCCC1 [Compound 62, 1-(2-Cyclohexylethyl)-6-(6-(4-isopropylpiperazin-1-yl)pyridin-3-yl)-N-((6-methyl-2-oxo-4-propyl-1,2-dihydropyridin-3-yl)methyl)-1H-indazole-4-carboxamide] | – | significant drop in potency | –
CCCc1cc(C)[nH]c(=O)c1CNC(=O)c1cc(-c2ccccc2)cc2c1cnn2C(C)C [Compound 66, 1-Isopropyl-N-((6-methyl-2-oxo-4-propyl-1,2-dihydropyridin-3-yl)methyl)-6-phenyl-1H-indazole-4-carboxamide] | – | relatively good potency | –
CCCc1cc(C)[nH]c(=O)c1CNC(=O)c1cc(-c2ccc(F)cc2)cc2c1cnn2C(C)C [Compound 67] | – | relatively good potency | –
CCCc1cc(C)[nH]c(=O)c1CNC(=O)c1cc(-c2ccc(C(F)(F)F)cc2)cc2c1cnn2C(C)C [Compound 68, 1-Isopropyl-N-((6-methyl-2-oxo-4-propyl-1,2-dihydropyridin-3-yl)methyl)-6-(4-(trifluoromethyl)phenyl)-1H-indazole-4-carboxa-mide] | – | relatively good potency | –
CCCc1cc(C)[nH]c(=O)c1CNC(=O)c1cc(C2CCNCC2)cc2c1cnn2C(C)C [Compound 72, 1-Isopropyl-N-((6-methyl-2-oxo-4-propyl-1,2-dihydropyridin-3-yl)methyl)-6-(piperidin-4-yl)-1H-indazole-4-carboxamide] | – | – | fold loss of potency for EZH1 [1]: more than 10 fold
CCCc1cc(C)[nH]c(=O)c1CNC(=O)c1cc(N2CCNCC2)cc2c1cnn2C(C)C [Compound 73, 1-Isopropyl-N-((6-methyl-2-oxo-4-propyl-1,2-dihydropyridin-3-yl)methyl)-6-(piperazin-1-yl)-1H-indazole-4-carboxamide] | – | – | fold loss of potency for EZH1 [1]: more than 10 fold
CCCc1cc(C)[nH]c(=O)c1CNC(=O)c1cc(Br)cc2c1cnn2C(C)C [Compound 76, 6-Bromo-1-isopropyl-N-((6-methyl-2-oxo-4-propyl-1,2-dihydro-pyridin-3-yl)methyl)-1H-indazole-4-carboxamide] | – | – | fold loss of potency for EZH2 [2]: 3–4 fold
